Our source for the EC50 values is US20090298894A1, “AMINO ACID COMPOUNDS” (Asahi Kasei Pharma Corporation, priority 2008, published 2009).

Counter-ions that a name gives are not always drawn.

In the experiment the target is T1, human S1P1 (Homo sapiens, UniProt P21453).
T1 construct: expressed in transfected cells
T1 sequence (P21453 whole entry): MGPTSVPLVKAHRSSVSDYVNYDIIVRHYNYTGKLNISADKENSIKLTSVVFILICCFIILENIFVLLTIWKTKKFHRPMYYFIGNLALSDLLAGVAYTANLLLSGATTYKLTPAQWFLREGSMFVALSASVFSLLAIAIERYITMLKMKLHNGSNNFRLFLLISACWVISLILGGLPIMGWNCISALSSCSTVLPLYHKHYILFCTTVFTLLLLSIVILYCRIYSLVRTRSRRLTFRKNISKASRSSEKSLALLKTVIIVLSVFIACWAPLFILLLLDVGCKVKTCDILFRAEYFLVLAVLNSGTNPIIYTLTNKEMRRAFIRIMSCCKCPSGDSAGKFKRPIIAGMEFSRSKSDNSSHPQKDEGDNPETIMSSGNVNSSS
The experiment is described as follows: 35S-GTPγS binding assay using a membrane prepared from CHO cells which stably express S1P1 receptor. In kind it is biochemical. Conditions: CHO cell membrane fraction stably expressing human S1P1, read-out: EC50 (concentration of agonist required to give 50% of its own maximum increase ratio), human S1P1. The protocol:
^35S-GTPγS Binding Assay Using a Membrane Prepared from CHO Cells Which Stably Express S1P1 Receptor
Functional activation of human S1P1 by the compounds was determined based on quantification of ^35S-GTPγS binding to G protein due to the receptor activation, by using a cell membrane fraction prepared from CHO cells in which human S1P1 are stably expressed. As for human S1P1, the above described human S1P1 was used. Membrane proteins as prepared and various concentrations of sphingosine-1-phosphate or the compounds diluted in a solvent such as DMSO were incubated in a solution comprising 20 mM Tris-Cl (pH 7.5), 100 mM NaCl, 10 mM MgCl2, […] (Upstate), 0.1% BSA (fatty acid free, Sigma) and 25 pM ^35S-GTPγS (specific activity 1250 Ci/mmol) in 96 well microtiter plates. Binding was performed by incubating them for 90 minutes at room temperature, and then terminated by harvesting the membrane proteins onto multiscreeen harvest FB plates (Millipore) using Millipore multiscreen separation system. After drying the harvest plates at least for 12 hours, 25 μl of MicroScint-O (Perkin Elmer) was added to each well and radioactivity was measured using a Top Counter.
Having the value measured for the well to which a solvent has been added as a control value, the agonist activity of the compounds was determined by comparing the increase in the well to which a test compound has been added to the control value, and therefore an increase ratio for each concentration of the compounds was obtained. EC50 values were culcurated as defined to be the concentration of agonist required to give 50% of its own maximum increase ratio.
(In general: GTPγS is a poorly hydrolysed GTP analogue; its binding reports G protein activation.)
Regarding `O=C(O)[C@H]1C[C@H](NC2CCc3cc(-c4noc(-c5ccc(-c6ccccc6F)c(F)c5)n4)ccc32)C1` (stereo partly drawn) [Example 61], the EC50 is less than 0.01 µM. `Cc1cc(-c2nc(-c3ccc4c(c3)CCC4N[C@H]3C[C@H](C(=O)O)C3)no2)c(F)cc1-c1ccsc1` (stereo partly drawn) [Example 5]: the EC50 is less than 0.01 µM. Next, `CSc1ccccc1-c1ccc(-c2nc(-c3ccc4c(c3)CCC4N[C@H]3C[C@H](C(=O)O)C3)no2)cc1C` (mixture of isomers) [Example 6, 1,3-Trans-3-(5-(5-(2-methyl-2′-methylthiobiphenyl-4-yl)-1,2,4-oxadiazol-3-yl)-2,3-dihydro-1H-inden-1-ylamino)cyclobutane carboxylic acid hydrochloric acid salt]: less than 0.01 µM. For `Cc1cc(-c2nc(-c3ccc4c(c3)CCC4N[C@H]3C[C@H](C(=O)O)C3)no2)ccc1-c1cccc(C(F)(F)F)c1F` (stereo partly drawn) [Example 31] the value was less than 0.01 µM; for `Cc1cc(-c2nc(-c3ccc4c(c3)CCC4N[C@H]3C[C@H](C(=O)O)C3)no2)c(F)cc1-c1ccoc1` (stereo partly drawn) [Example 13], less than 0.01 µM; for `Cc1cc(-c2nc(-c3cc(Cl)c4c(c3)CN([C@H]3C[C@H](C(=O)O)C3)C4)no2)ccc1-c1ccccc1` [Example 77], less than 0.01 µM. Regarding `Cc1cc(-c2nc(-c3ccc4c(c3)CCC4N[C@H]3C[C@H](C(=O)O)C3)no2)ccc1-c1cccc(F)c1` (stereo partly drawn) [Example 4], the EC50 was less than 0.01 µM.

For `Cc1cc(-c2nc(-c3ccc4c(c3)CCC4NC3CC(C(=O)O)C3)no2)ccc1-c1cccc([N+](=O)[O-])c1C(F)(F)F` (stereo not drawn) [Example 49], the EC50 was less than 0.01 µM. For the compound `Cc1cc(-c2nc(-c3ccc4c(c3)CN([C@H]3C[C@H](C(=O)O)C3)C4)no2)ccc1-c1cccc(C(F)(F)F)c1F` [Example 92], the EC50 is less than 0.01 µM. For `Cc1cc(-c2nc(-c3ccc4c(c3)CCC4N[C@H]3C[C@H](C(=O)O)C3)no2)c(F)cc1-c1ccccc1OC(F)(F)F` (stereo partly drawn) [Example 24] the value was less than 0.01 µM; for `Cc1cc(-c2nc(-c3ccc4c(c3)CCC4N[C@H]3C[C@H](C(=O)O)C3)no2)ccc1-c1cc(F)cc(F)c1F` (stereo partly drawn) [Example 46], less than 0.01 µM; for `Cc1cc(-c2nc(-c3ccc4c(c3)CCC4N[C@H]3C[C@H](C(=O)O)C3)no2)ccc1-c1ccccc1Cl` (stereo partly drawn) [Example 58], less than 0.01 µM. For `Cc1cc(-c2nc(-c3ccc4c(c3)CN([C@H]3C[C@H](C(=O)O)C3)C4)no2)ccc1-c1cscc1C` [Example 88] the value was less than 0.01 µM; for `O=C(O)[C@H]1C[C@H](N2Cc3ccc(-c4noc(-c5ccc(-c6ccccc6)c(Cl)c5)n4)cc3C2)C1` [Example 67], less than 0.01 µM; for `Cc1cscc1-c1c(C)cc(-c2nc(-c3ccc4c(c3)CCC4N[C@H]3C[C@H](C(=O)O)C3)no2)cc1C` (stereo partly drawn) [Example 22], less than 0.01 µM. For `Cc1cc(-c2nc(-c3ccc4c(c3)CN([C@H]3C[C@H](C(=O)O)C3)C4)no2)ccc1-c1ccccc1C(F)(F)F` [Example 85] the value was less than 0.01 µM. With `Cc1cc(-c2nc(-c3ccc4c(c3)CCC4N[C@H]3C[C@H](C(=O)O)C3)no2)ccc1-c1ccsc1` (stereo partly drawn) [Example 3], the EC50 was less than 0.01 µM. For `Cc1cc(-c2nc(-c3ccc4c(c3)CN([C@H]3C[C@H](C(=O)O)C3)C4)no2)ccc1-c1ccccc1Cl` [Example 66] the value was less than 0.01 µM.

On to `Cc1cc(-c2nc(-c3cc(C)c4c(c3)CN([C@H]3C[C@H](C(=O)O)C3)C4)no2)ccc1-c1ccccc1C(F)(F)F` [Example 54], for which the EC50 was less than 0.01 µM.

On to `Cc1cc(-c2nc(-c3ccc4c(c3)CN([C@H]3C[C@@H](C(=O)O)C3)C4)no2)c(F)cc1-c1cc(F)cc(F)c1F` [Example 106], for which the EC50 is less than 0.01 µM. As to `N#Cc1ccccc1-c1ccc(-c2nc(-c3ccc4c(c3)CCC4N[C@H]3C[C@H](C(=O)O)C3)no2)cc1Cl` (stereo partly drawn) [Example 63], the EC50 was less than 0.01 µM. For `Cc1cc(-c2nc(-c3ccc4c(c3)CCC4N[C@H]3C[C@H](C(=O)O)C3)no2)ccc1-c1cccc(I)c1C(F)(F)F` (stereo partly drawn) [Example 52] the value was less than 0.01 µM; for `Cc1cc(-c2nc(-c3ccc4c(c3)CCC4N[C@H]3C[C@H](C(=O)O)C3)no2)c(F)cc1-c1cccc(F)c1C(F)(F)F` (stereo partly drawn) [Example 40], less than 0.01 µM; for `Cc1cc(-c2nc(-c3ccc4c(c3)CCC4N[C@H]3C[C@H](C(=O)O)C3)no2)ccc1-c1cccc(F)c1C#N` (stereo partly drawn) [Example 64], less than 0.01 µM. Next, `Cc1cc(-c2nc(-c3ccc4c(c3)CCC4N[C@H]3C[C@H](C(=O)O)C3)no2)ccc1-c1cccc(C)c1F` (stereo partly drawn) [Example 37]: less than 0.01 µM. For `Cc1cc(-c2nc(-c3ccc4c(c3)CCC4N[C@H]3C[C@H](C(=O)O)C3)no2)c(F)cc1-c1ccccc1F` (stereo partly drawn) [Example 26], the EC50 was less than 0.01 µM. For `Cc1cc(-c2nc(-c3ccc4c(c3)CCC4N[C@H]3C[C@H](C(=O)O)C3)no2)ccc1-c1cccc(Br)c1C(F)(F)F` (stereo partly drawn) [Example 51] the value was less than 0.01 µM. With `Cc1cc(-c2nc(-c3ccc4c(c3)CCC4N[C@H]3C[C@H](C(=O)O)C3)no2)c(F)cc1-c1ccccc1` (stereo partly drawn) [Example 12], the EC50 is less than 0.01 µM.

With `Cc1cc(-c2nc(-c3ccc4c(c3)CCC4N[C@H]3C[C@H](C(=O)O)C3)no2)ccc1-c1cscc1C` (stereo partly drawn) [Example 25], the EC50 was less than 0.01 µM. In the case of `Cc1cc(-c2nc(-c3ccc4c(c3)CN([C@H]3C[C@H](C(=O)O)C3)C4)no2)ccc1-c1ccsc1` [Example 78], the EC50 was less than 0.01 µM. In the case of `Cc1cc(-c2nc(-c3ccc4c(c3)CCC4N[C@H]3C[C@H](C(=O)O)C3)no2)ccc1-c1cccc(F)c1F` (stereo partly drawn) [Example 28], the EC50 is less than 0.01 µM.

As to `Cc1cc(-c2nc(-c3ccc4c(c3)CN([C@H]3C[C@H](C(=O)O)C3)C4)no2)c(F)cc1-c1cccc(F)c1F` [Example 93], the EC50 was less than 0.01 µM.

As to `Cc1cc(-c2nc(-c3ccc4c(c3)CN([C@H]3C[C@H](C(=O)O)C3)C4)no2)c(F)cc1-c1cc(F)cc(F)c1F` [Example 102], the EC50 was less than 0.01 µM. For `Cc1cc(-c2nc(-c3ccc4c(c3)CCC4N[C@H]3C[C@H](C(=O)O)C3)no2)ccc1-c1ccccc1C(F)(F)F` (stereo partly drawn) [Example 21], the EC50 was less than 0.01 µM. `Cc1cc(-c2nc(-c3ccc4c(c3)CCC4N[C@H]3C[C@H](C(=O)O)C3)no2)ccc1-c1ccccc1F` (stereo partly drawn) [Example 20]: the EC50 is less than 0.01 µM. Next, `O=C(O)[C@H]1C[C@H](NC2CCc3cc(-c4noc(-c5ccc(-c6ccccc6)c(F)c5)n4)ccc32)C1` (stereo partly drawn) [Example 60]: less than 0.01 µM; `Cc1cc(-c2nc(-c3ccc4c(c3)CN([C@H]3C[C@H](C(=O)O)C3)C4)no2)ccc1-c1cc(F)cc(F)c1F` [Example 100]: less than 0.01 µM; `Cc1cc(-c2nc(-c3ccc4c(c3)CN([C@H]3C[C@H](C(=O)O)C3)C4)no2)ccc1-c1ccccc1F` [Example 84]: less than 0.01 µM. Next, `Cc1cc(-c2nc(-c3ccc4c(c3)CCC4N[C@H]3C[C@H](C(=O)O)C3)no2)cc(C)c1-c1ccccc1` (stereo partly drawn) [Example 2]: less than 0.01 µM; `Cc1cc(-c2nc(-c3ccc4c(c3)CCC4N[C@H]3C[C@H](C(=O)O)C3)no2)ccc1-c1c(F)cccc1F` (stereo partly drawn) [Example 42]: less than 0.01 µM; `Cc1cc(-c2nc(-c3ccc4c(c3)CN([C@H]3C[C@@H](C(=O)O)C3)C4)no2)ccc1-c1ccccc1` [Example 104]: less than 0.01 µM. Next, `Cc1cc(-c2nc(-c3ccc4c(c3)CCC4N[C@H]3C[C@H](C(=O)O)C3)no2)ccc1-c1cc(C(F)(F)F)ccc1F` (stereo partly drawn) [Example 36]: less than 0.01 µM; `Cc1cc(-c2nc(-c3ccc4c(c3)CCC4N[C@H]3C[C@H](C(=O)O)C3)no2)ccc1-c1cc(Cl)ccc1F` (stereo partly drawn) [Example 35]: less than 0.01 µM; `Cc1cc(-c2nc(-c3ccc4c(c3)CCC4N[C@H]3C[C@H](C(=O)O)C3)no2)c(F)cc1-c1cccc(F)c1F` (stereo partly drawn) [Example 32]: less than 0.01 µM.

For `Cc1cc(-c2nc(-c3ccc4c(c3)CCC4N[C@H]3C[C@H](C(=O)O)C3)no2)ccc1-c1cc(F)ccc1C#N` (stereo partly drawn) [Example 65], the EC50 was less than 0.01 µM. Next, `Cc1cc(-c2nc(-c3ccc4c(c3)CCC4N[C@H]3C[C@H](C(=O)O)C3)no2)ccc1-c1cc(F)ccc1F` (stereo partly drawn) [Example 29]: less than 0.01 µM; `Cc1cc(-c2nc(-c3ccc4c(c3)CCC4N[C@H]3C[C@H](C(=O)O)C3)no2)ccc1-c1c(F)ccc(F)c1F` (stereo partly drawn) [Example 45]: less than 0.01 µM. Next, `O=C(O)C1CC(NC2CCc3cc(-c4noc(-c5ccc(-c6ccccc6F)c(Cl)c5)n4)ccc32)C1` (stereo not drawn) [Example 55, 1,3-Trans-3-(5-(5-(2-chloro-2′-fluorobiphenyl-4-yl)-1,2,4-oxadiazol-3-yl)-2,3-dihydro-1H-inden-1-ylamino)cyclobutane carboxylic acid hydrochloric acid salt]: less than 0.01 µM; `Cc1cc(-c2nc(-c3ccc4c(c3)CCC4N[C@H]3C[C@H](C(=O)O)C3)no2)ccc1-c1cccc(C(F)(F)F)c1C(F)(F)F` (stereo partly drawn) [Example 47]: less than 0.01 µM. For `Cc1cc(-c2nc(-c3ccc4c(c3)CCC4N[C@H]3C[C@H](C(=O)O)C3)no2)cc(C)c1-c1ccccc1F` (stereo partly drawn) [Example 15] the value was less than 0.01 µM. For `Cc1cc(-c2nc(-c3ccc4c(c3)CCC4N[C@H]3C[C@H](C(=O)O)C3)no2)ccc1-c1ccoc1` (stereo partly drawn) [Example 14], the EC50 was less than 0.01 µM.
